Reference: patent US20090018134A1, “Compounds - 945” (AstraZeneca AB, priority 2007, published 2009)
pIC50: −log10 of the molar value.

Biological target: T1, mTOR (Homo sapiens, UniProt P42345)
T1 construct: FLAG; made in house
Assay: In Vitro mTOR Kinase Assay (Echo), Test (a)(ii)
Format: biochemical
Settings: read-out: mTOR Kinase Assay (Echo)
How it was run: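 AlphaScreen read-out: biotinylated substrate phosphorylation was detected with anti-p70 S6K (T389) 1A5 antibody, Protein A acceptor and streptavidin donor beads after overnight dark incubation at room temperature. Enzyme was FLAG-mTOR 1362-2549 from stable HEK293 cells.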

T1 sequence (P42345 1362-2549): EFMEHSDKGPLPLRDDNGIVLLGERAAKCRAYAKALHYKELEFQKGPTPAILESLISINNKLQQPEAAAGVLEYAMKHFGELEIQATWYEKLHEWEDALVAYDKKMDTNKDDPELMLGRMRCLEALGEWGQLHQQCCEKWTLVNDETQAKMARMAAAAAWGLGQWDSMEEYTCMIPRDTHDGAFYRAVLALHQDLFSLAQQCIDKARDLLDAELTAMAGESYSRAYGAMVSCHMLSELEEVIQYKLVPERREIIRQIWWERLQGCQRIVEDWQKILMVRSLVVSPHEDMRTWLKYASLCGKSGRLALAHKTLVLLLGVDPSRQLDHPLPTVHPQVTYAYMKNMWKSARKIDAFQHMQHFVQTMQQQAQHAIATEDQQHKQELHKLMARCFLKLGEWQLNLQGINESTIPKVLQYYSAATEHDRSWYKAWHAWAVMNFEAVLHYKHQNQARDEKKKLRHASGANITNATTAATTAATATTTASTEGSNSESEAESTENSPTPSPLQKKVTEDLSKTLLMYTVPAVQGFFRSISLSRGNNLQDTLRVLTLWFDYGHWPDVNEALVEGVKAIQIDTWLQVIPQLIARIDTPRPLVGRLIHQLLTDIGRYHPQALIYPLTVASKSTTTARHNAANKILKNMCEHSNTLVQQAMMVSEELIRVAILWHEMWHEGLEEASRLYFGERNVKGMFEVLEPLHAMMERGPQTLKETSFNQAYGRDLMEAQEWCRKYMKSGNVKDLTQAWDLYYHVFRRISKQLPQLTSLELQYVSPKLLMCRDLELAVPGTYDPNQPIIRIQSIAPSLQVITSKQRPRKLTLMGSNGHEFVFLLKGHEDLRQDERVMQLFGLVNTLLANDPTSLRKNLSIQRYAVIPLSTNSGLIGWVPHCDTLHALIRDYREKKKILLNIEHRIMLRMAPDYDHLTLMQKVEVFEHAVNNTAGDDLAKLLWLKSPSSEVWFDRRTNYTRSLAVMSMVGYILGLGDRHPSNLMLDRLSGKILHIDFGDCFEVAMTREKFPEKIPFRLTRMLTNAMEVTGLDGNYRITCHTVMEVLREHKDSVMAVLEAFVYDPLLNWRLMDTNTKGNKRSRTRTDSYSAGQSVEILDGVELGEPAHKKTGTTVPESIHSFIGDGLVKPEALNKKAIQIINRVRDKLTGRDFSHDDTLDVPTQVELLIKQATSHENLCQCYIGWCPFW

| SMILES | pIC50 |
| --- | --- |
| C[C@H]1COCCN1c1cc(C2(S(C)(=O)=O)CC2)nc(-c2ccc(NC(=O)Nc3ccc(F)cn3)cc2)n1 [Example 2v, 3-(5-fluoropyridin-2-yl)-1-[4-[4-[(3S)-3-methylmorpholin-4-yl]-6-(1-methylsulfonylcyclopropyl)pyrimidin-2-yl]phenyl]urea] | 8.06 |
| C[C@H]1COCCN1c1cc(C2(S(C)(=O)=O)CC2)nc(-c2ccc(NC(=O)Nc3ccc(F)c(F)c3)cc2)n1 [Example 2q, 3-(3,4-difluorophenyl)-1-[4-[4-[(3S)-3-methylmorpholin-4-yl]-6-(1-methylsulfonylcyclopropyl)pyrimidin-2-yl]phenyl]urea] | 9.00 |
| CN(C)CCNC(=O)Nc1ccc(-c2nc(N3CCOCC3)cc(C3(S(C)(=O)=O)CCCC3)n2)cc1 [Example 12n, 3-(2-dimethylaminoethyl)-1-[4-[4-(1-methylsulfonylcyclopentyl)-6-morpholin-4-ylpyrimidin-2-yl]phenyl]urea] | 6.62 |

More lines, now with the values ahead:

| pIC50 | SMILES |
| --- | --- |
| 8.75 | CCCNC(=O)Nc1ccc(-c2nc(N3CCOC[C@@H]3C)cc(C3(S(=O)(=O)c4ccc(F)cc4)CC3)n2)cc1 [Example 8h, 3-[4-[4-[1-(4-fluorophenyl)sulfonylcyclopropyl]-6-[(3S)-3-methylmorpholin-4-yl]pyrimidin-2-yl]phenyl]-1-propyl-urea] |
| 8.80 | CCCNC(=O)Nc1ccc(-c2nc(N3CCOC[C@@H]3C)cc(C3(S(C)(=O)=O)CCCC3)n2)cc1 [Example 4h, 1-[4-[4-[(3S)-3-methylmorpholin-4-yl]-6-(1-methylsulfonylcyclopentyl)pyrimidin-2-yl]phenyl]-3-propyl-urea] |

Same assay, conditions: table of enzyme assay Test (a)(ii); read-out: Test (a)(ii) IC50

| SMILES | pIC50 |
| --- | --- |
| C[C@H]1COCCN1c1cc(C2(S(=O)(=O)c3ccc(NCCO)cc3)CC2)nc(-c2cnc(NC(=O)NCCO)nc2)n1 [Example 14aa, 3-(2-hydroxyethyl)-1-[5-[4-[1-[4-(2-hydroxyethylamino)phenyl]sulf-onylcyclopropyl]-6-[(3S)-3-methylmorpholin-4-yl]pyrimidin-2-yl]pyrimidin-2-yl]urea] | 7.73 |
| CNC(=O)Nc1ccc(-c2nc(N3CCOC[C@@H]3C)cc(C3(S(C)(=O)=O)CCOCC3)n2)cc1 [Example 23a, 3-methyl-1-[4-[4-[(3S)-3-methylmorpholin-4-yl]-6-(4-methylsulfonyloxan-4-yl)pyrimidin-2-yl]phenyl]urea] | 8.34 |
| Cc1ccccc1S(=O)(=O)C1(c2cc(N3CCOC[C@@H]3C)nc(-c3ccc(NC(=O)Nc4cnn(C)c4)cc3)n2)CC1 [Example 54f, 1-[4-[4-[(3S)-3-methylmorpholin-4-yl]-6-[1-(2-methylphenyl)sulfonylcyclo-propyl]pyrimidin-2-yl]phenyl]-3-(1-methylpyrazol-4-yl)urea] | 7.97 |
| C[C@H]1COCCN1c1cc(C2(S(=O)(=O)CCCO)CCC2)nc(-c2ccc(NC(=O)Nc3cnn(C)c3)cc2)n1 [Example 43d, 1-[4-[4-[1-(3-hydroxypropylsulfonyl)cyclobu-tyl]-6-[(3S)-3-methylmorpholin-4-yl]pyrimidin-2-yl]phenyl]-3-(1-methylpyrazol-4-yl)urea] | 7.96 |
| Cc1ccc(S(=O)(=O)C2(c3cc(N4CCOC[C@@H]4C)nc(-c4ccc(NC(=O)NC5CC5)cc4)n3)CCC2)cc1 [Example 68, 3-Cyclopropyl-1-[4-[4-[(3S)-3-methylmorpholin-4-yl]-6-[1-(4-methylphenyl)sulfonylcyclobutyl]pyrimidin-2-yl]phenyl]urea] | 8.85 |
| CCCNC(=S)Nc1ccc(-c2nc(N3CCOC[C@@H]3C)cc(C3(S(C)(=O)=O)CC3)n2)cc1 [Example 37n, 1-[4-[4-[(3S)-3-methylmorpholin-4-yl]-6-(1-methylsulfonylcyclopropyl)pyri-midin-2-yl]phenyl]-3-propylthiourea] | 7.41 |
| Cc1csc(S(=O)(=O)C2(c3cc(N4CCOCC4)nc(-c4ccc(NC(=O)NC5CCC5)cc4)n3)CC2)n1 [Example 42e, 3-cyclobutyl-1-[4-[4-[1-[(4-methyl-1,3-thiazol-2-yl)sulfonyl]cyclopropyl]-6-morpholin-4-ylpyrimidin-2-yl]phenyl]urea] | 8.59 |
| CC(C)CNC(=O)Nc1ccc(-c2nc(N3CCOC[C@@H]3C)cc(C3(S(=O)(=O)c4ccccn4)CC3)n2)cc1 [Example 28c, 1-[4-[4-[(3S)-3-methylmorpholin-4-yl]-6-(1-pyridin-2-ylsulfonylcyclopropyl)pyrimidin-2-yl]phenyl]-3-(2-methylpropyl)urea] | 8.07 |
| Cc1nn(C)cc1S(=O)(=O)C1(c2cc(N3CCOC[C@@H]3C)nc(-c3ccc(NC(=O)Nc4cnn(C)c4)cc3)n2)CC1 [Example 55f, 1-[4-[4-[1-(1,3-dimethylpyrazol-4-yl)sulfonylcyclopropyl]-6-[(3S)-3-methylmorpholin-4-yl]pyrimidin-2-yl]phenyl]-3-(1-methylpyrazol-4-yl)urea] | 7.81 |
| C[C@H]1COC[C@H](C)N1c1cc(C2(S(=O)(=O)C3CC3)CC2)nc(-c2ccc(NC(=O)NCC(F)F)cc2)n1 [Example 92a, 1-[4-[4-(1-cyclopropylsulfonylcyclopropyl)-6-[(3S,5S)-3,5-dimethylmorpholin-4-yl]pyrimidin-2-yl]phenyl]-3-(2,2-difluoroethyl)urea] | 8.26 |
| C[C@H]1COCCN1c1cc(C2(S(C)(=O)=O)CC2)nc(-c2ccc(NC(=O)Nc3ccc(F)c(F)c3)cc2)n1 [Example 2q, 3-(3,4-difluorophenyl)-1-[4-[4-[(3S)-3-methylmorpholin-4-yl]-6-(1-methylsulfonylcyclopropyl)pyrimidin-2-yl]phenyl]urea] | 9.42 |
| CNC(=O)Nc1ccc(-c2nc(N3CCOCC3)cc(C3(S(=O)(=O)C4CC4)CCCC3)n2)cc1 [Example 13k, 1-[4-[4-(1-cyclopropylsulfonylcyclopentyl)-6-morpholin-4-ylpyrimidin-2-yl]phenyl]-3-methylurea] | 7.75 |
| CNC(=O)Nc1ccc(-c2nc(N3CCOCC3)cc(C3(S(=O)(=O)c4ccccn4)CC3)n2)cc1 [Example 56a, 3-methyl-1-[4-[4-morpholin-4-yl-6-(1-pyridin-2-ylsulfonylcyclopropyl)pyrimidin-2-yl]phenyl]urea] | 8.65 |
| C[C@H]1COCCN1c1cc(C2(S(=O)(=O)C3CC3)CCCC2)nc(-c2ccc(NC(=O)NCCO)cc2)n1 [Example 36k, 1-[4-[4-(1-cyclopropylsulfonylcyclopentyl)-6-[(3S)-3-methylmorpholin-4-yl]pyrimidin-2-yl]phenyl]-3-(2-hydroxyethyl)urea] | 7.88 |
| C[C@H]1COCCN1c1cc(C2(S(=O)(=O)c3ccc(Cl)cc3)CCOCC2)nc(-c2ccc(NC(=O)NCCO)cc2)n1 [Example 23l, 1-[4-[4-[4-(4-chlorophenyl)sulfonyloxan-4-yl]-6-[(3S)-3-methylmorpholin-4-yl]pyrimidin-2-yl]phenyl]-3-(2-hydroxyethyl)urea] | 8.05 |
| CNC(=O)Nc1ccc(-c2nc(N3CCOC[C@@H]3C)cc(C3(S(=O)(=O)CCO)CC3)n2)cc1 [Example 16, 1-[4-[4-[1-(2-Hydroxyethylsulfonyl)cyclopropyl]-6-[(3S)-3-methylmorpholin-4-yl]pyrimidin-2-yl]phenyl]-3-methylurea] | 8.85 |

Other lines, results leading:

| pIC50 | SMILES |
| --- | --- |
| 8.04 | CCS(=O)(=O)C1(c2cc(N3CCOC[C@@H]3C)nc(-c3ccc(NC(=O)N[C@H](C)CO)cc3)n2)CCC1 [Example 87f, 1-[4-[4-(1-ethylsulfonylcyclobutyl)-6-[(3S)-3-methylmorpholin-4-yl]pyrimidin-2-yl]phenyl]-3-[(2R)-1-hydroxypropan-2-yl]urea] |
| 7.91 | C[C@H]1COCCN1c1cc(C2(S(=O)(=O)CCCO)CC2)nc(-c2ccc(NC(=S)NCC(F)F)cc2)n1 [Example 99j, 3-(2,2-difluoroethyl)-1-[4-[4-[1-(3-hydroxypropylsulfonyl)cyclopropyl]-6-[(3S)-3-methylmorpholin-4-yl]pyrimidin-2-yl]phenyl]thiourea] |
| 8.40 | Cc1csc(S(=O)(=O)C2(c3cc(N4CCOC[C@@H]4C)nc(-c4ccc(NC(=O)NCCO)cc4)n3)CCCC2)n1 [Example 36dl, 3-(2-hydroxyethyl)-1-[4-[4-[(3S)-3-methylmorpholin-4-yl]-6-[1-[(4-methyl-1,3-thiazol-2-yl)sulfonyl]cyclopentyl]pyrimidin-2-yl]phenyl]urea] |
| 7.48 | Cc1ccc(F)cc1S(=O)(=O)C1(c2cc(N3CCOC[C@@H]3C)nc(-c3ccc(NC(=O)Nc4cnn(C)c4)cc3)n2)CC1 [Example 61f, 1-[4-[4-[1-(5-fluoro-2-methylphenyl)sulfonylcyclopropyl]-6-[(3S)-3-methylmorpholin-4-yl]pyrimidin-2-yl]phenyl]-3-(1-methylpyrazol-4-yl)urea] |
| 8.59 | C[C@H]1COCCN1c1cc(C2(S(=O)(=O)c3ccccc3)CC2)nc(-c2ccc(NC(=O)NC3CCC3)cc2)n1 [Example 36bd, 1-[4-[4-[1-(benzenesulfonyl)cyclopropyl]-6-[(3S)-3-methylmorpholin-4-yl]pyrimidin-2-yl]phenyl]-3-cyclobutylurea] |
| 8.67 | Cc1csc(S(=O)(=O)C2(c3cc(N4CCOC[C@@H]4C)nc(-c4ccc(NC(=O)NCCF)cc4)n3)CC2)n1 [Example 64ae, 3-(2-fluoroethyl)-1-[4-[4-[(3S)-3-methylmorpholin-4-yl]-6-[1-[(4-methyl-1,3-thiazol-2-yl)sulfonyl]cyclopropyl]pyrimidin-2-yl]phenyl]urea] |
| 8.84 | CCCNC(=O)Nc1ccc(-c2nc(N3CCOC[C@@H]3C)cc(C3(S(C)(=O)=O)CCCC3)n2)cc1 [Example 4h, 1-[4-[4-[(3S)-3-methylmorpholin-4-yl]-6-(1-methylsulfonylcyclopentyl)pyrimidin-2-yl]phenyl]-3-propyl-urea] |
| 8.12 | C[C@H]1COCCN1c1cc(C2(S(=O)(=O)CCCO)CCC2)nc(-c2ccc(NC(=O)NCCO)cc2)n1 [Example 43b, 3-(2-hydroxyethyl)-1-[4-[4-[1-(3-hydroxypropylsulfonyl)cyclobu-tyl]-6-[(3S)-3-methylmorpholin-4-yl]pyrimidin-2-yl]phenyl]urea] |
| 8.42 | C[C@H]1COCCN1c1cc(C2(S(=O)(=O)c3c(F)cccc3F)CC2)nc(-c2ccc(NC(=O)NCCF)cc2)n1 [Example 86d, 1-[4-[4-[1-(2,6-difluorophenyl)sulfonylcyclopropyl]-6-[(3S)-3-methylmorpholin-4-yl]pyrimidin-2-yl]phenyl]-3-(2-fluoroethyl)urea] |
| 7.87 | C[C@H]1COCCN1c1cc(C2(S(=O)(=O)c3ccccc3)CC2)nc(-c2ccc(NC(=S)NC(C)(C)CO)cc2)n1 [Example 37ag, 1-[4-[4-[1-(benzenesulfonyl)cyclopropyl]-6-[(3S)-3-methylmorpholin-4-yl]pyrimidin-2-yl]phenyl]-3-(1-hydroxy-2-methylpropan-2-yl)thiourea] |
